Assay results published in publication PMC8424300, “Identification of novel microtubule inhibitors effective in fission yeast and human cells and their effects on breast cancer cell lines” (Open Biology, 2021).
Like-named read-outs stand apart in the source and are kept apart here.

Columns and labels:
[1] = target: T1, porcine brain tubulin heterodimer (Sus scrofa, UniProt P02550+P02554); assay: In vitro tubulin polymerization assay; format: biochemical; conditions: 37°C; for IC50: figure 3c, 1 h
T1 construct: highly purified porcine brain tubulin heterodimer; purchased Cytoskeleton T240 (kit BK011P); host or cells: porcine brain tissue
Protocol: To determine whether the 12 compounds affected mitotic spindle organization by directly interfering with tubulin polymerization, we performed in vitro tubulin polymerization assays. […] Tubulin polymerization was monitored every 1 min by measuring fluorescence absorbance at 340 nm for 1 h.
Figure 3. […] Tubulin was incubated with 5 µM of the compounds and DMSO for 60 min at 37°C. The fluorescence increase was monitored every minute at 340 nm. […] (b). […] Nocodazole (NOC) was used as the control. (c). […] (d) The same experiment as (c) but carried out at a different time.
The Tubulin Polymerization HTS Assay Kit (Cytoskeleton, BK011P) was used according to the manufacturer's instructions. All components were added into a 96-well microtiter plate (Corning Costar, cat. no. 3686), then the tubulin reaction mixture was quickly added to the wells, and tubulin polymerization was initiated and monitored every 1 min at 37°C for 1 h by recording fluorescence of excitation wavelength at 340 nm and emission at 450 nm. The tubulin reaction mixture was composed of 80 mM PIPES (pH 6.9), and 1 mM MgCl2, 1 mM EGTA, 1 mM GTP and 2 mg ml^−1 of highly purified porcine brain tubulin heterodimer (Cytoskeleton, cat. no. T240).

[2] = tested on: BT549, CAL51 and MB-157 breast cancer cell lines; assay: Viability dose-response in breast cancer cell lines; format: cell-based; conditions: Homo sapiens, 96 h; range over the breast cell lines and the non-cancer cell line MCF-10A; 4 days of treatment
Protocol: The sensitivity of the inhibitors L1, J3, A15 and M2 were evaluated in three breast cancer cell lines, (BT549, CAL51 and MB-157) and a non-cancer cell line from the human mammary gland, MCF-10A (figure 8). Drug sensitivity was determined by culturing breast cancer cell lines (black lines) and the non-cancer cell line (red line) with a range of concentrations of each compound, and viability was measured after 4 days of treatment in triplicate.
Figure 8. Dose–response curves in three cancer cell lines (BT549, CAL51 and MB-157) are shown in black and non-cancer cell line; MCF-10A is shown in red. They were subjected to a dose–response matrix of the tubulin inhibitor, L1, A15, M2 and J3, respectively. Viability relative to the vehicle control was measured […] after treatment. Mean ± s.e.m. for n = 3 experiments is shown.
(§1) Cells were plated in 384-well plates at a density of 800 cells per well in 22.5 µl of media. After 24 h, 2.5 µl drug was diluted in media and was added to each well. Following 5 days of incubation, viability was assessed using CellTiter-Glo (Promega) according to the manufacture's protocol. Luminescence in each well was measured using a Synergy Neo2 plate reader (BioTek).

MDR-sup fission yeast = assay: Phenotypic assay of microtubule organization in MDR-sup strain expressing GFP-atb2; format: cell-based, Schizosaccharomyces pombe; conditions: same phenotype = no interphase microtubules or mitotic spindles detectable, tubulin in nucleus; figure S2
Protocol: We have previously screened a collection of 10 371 small molecules to identify compounds that inhibit the growth of a multiple-drug-sensitive fission yeast strain (MDR-sup). We selected 248 compounds (2.4% of the total) that inhibited fission yeast cell growth rate by at least 50% (figure 1a) and subsequently conducted a phenotypic screen of these to identify drugs that affect microtubule organization (figure 1b). After the MDR-sup cells were treated with 5 µM of each compound for 3 h, microtubules were monitored using GFP tagged α-tubulin Atb2 and live-cell fluorescence microscopy. In untreated interphase cells, microtubules form long cytoplasmic arrays that run parallel to the long cellular axis, and in mitotic cells, microtubules form a bipolar spindle in the nucleus and the cytoplasmic microtubules disappear (figure 1c(i), arrow). […] This screen identified 34 compounds that induced cytological phenotypes indicative of defects in microtubule organization or function.
Figure 1. Phenotypic screening in MDR-sup fission yeast (a). Growth assay screening using MDR-sup strain. The optical density was measured with 20 µM of each compound and 248 compounds that gave at least 50% growth inhibition were used for further phenotyping marked by the red lines. Growth was normalized to DMSO-treated cells. (b) Schematic representation of the screening workflow. (c) Examples of the phenotypic assay using L1, P2 and B8 in the MDR-sup strain expressing GFP-atb2 (tubulin) are shown. Cells were incubated in 5 µM compound for 3 h and atb2 signals were detected in living cells. (i) Cells in absence of any compound. In interphase cells, α-tubulin Atb2 protein was detected in the nucleus and interphase microtubules, while mitotic spindles were detected in mitotic cells (arrows). (ii) In the presence of L1, microtubules were depolymerized and tubulin signals were detected distributed throughout the nucleus. (iii) In the presence of P2, short spindles were detected but anaphase spindles were not. (iv) In the presence of B8, interphase microtubules were not detected, while, dots were detected. […]

WTβIII HeLa cell line = assay: Cell viability in HeLa cell line overexpressing wild-type βIII tubulin; format: cell-based; conditions: Homo sapiens
Protocol: One of the main mechanisms of drug resistance is due to the overexpression of class III β tubulin. […] The ability of L1 to overcome β III tubulin-mediated multidrug resistance was evaluated in two HeLa isogenic cell lines.
Figure 7.
as §1

HeLa cells = assay: Time-lapse live imaging of mitotic progression and cell fate in HeLa cells (H2B-mCherry, EGFP-α-tubulin); format: cell-based, human; conditions: for phenotype after mitotic arrest: 0.1 and 0.25 µM compound; for mitotic duration (prophase to cytokinesis): 24 h imaging, DMSO control 77 ± 6 min
Protocol: To determine whether these 34 compounds also induce mitotic abnormalities in human cells, a second screen of these compounds was conducted using HeLa cells. We used time-lapse microscopy to monitor mitotic progression in HeLa cells expressing mCherry-tagged histone H2B to mark chromatin, and EGFP-tagged α-tubulin to monitor microtubules over a 24 h time period in the presence of 2 µM of each of the 34 compounds. The duration of mitosis was determined by live-cell imaging, defined as the period from prophase to cytokinesis based on chromatin and microtubule morphologies (figure 2a). The control DMSO-treated cells progressed through mitosis with a mean mitotic duration of 77 ± 6 min. Among the 34 compounds we tested, nine caused a significant increase in mitotic duration in human cells (figure 2a), ranging from 122 ± 42 min (F15) to 720 ± 53 min (C16). […] As described in the Discussion, we have not carried out a detailed analysis for B8 in this study. To determine whether these cell deaths were caused by apoptosis, caspase activity was assayed for 24 h using time-lapse microscopy in the presence of the 12 compounds. Caspase 3 and Caspase 7 activities were observed 12–24 h after the addition of the compounds (electronic supplementary material, figure S1A). There were also other indications of apoptosis including the morphological chances reminiscing of membrane blebbing, chromatin condensation and cell explosion (electronic supplementary material, figure S1B). Caspase-mediated apoptosis induction is similar to the effects of mitotic arrest caused by anti-microtubule drugs in HeLa cells. […] We conclude that these 12 compounds cause mitotic arrest followed by cell death through apoptotic activation.
Figure 2. Effect of compounds on mitotic progression in HeLa cell (a). Duration of mitosis was analysed by live imaging of HeLa cells stably expressing H2B-mcherry (red) and EGFP-a tubulin (green) treated in the presence of 0.5 µM (K1, L1, J1) or 2 µM (C16, E2, O12, M2, I15, J3, I2, A15, F15) compound for 24 h and the time in mitosis was measured in 200 cells. DMSO-treated cells are shown, which served as the vehicle control. Show mean as ‘+’. (b). The Cell fate after mitosis (normal division, abnormal division or cell death) was quantitatively assessed after the mitotic arrest observed in (a). (c) Dose-dependent change of phenotypes after mitotic arrest with K1, L1 and J1.
For live-cell imaging experiments, 200 000 cells were seeded onto glass-bottom culture dishes (MatTek P35GC-1.5-14-C). Cells were grown overnight before the addition of the compound, and the culture media was replaced with fresh media lacking phenol red to limit phototoxicity before imaging.
Live-cell imaging was performed in a LCV110 U VivaView FL incubator microscope (Olympus) equipped with an X-Cite-exacte illumination source (Excelitas Technologies) and Orca-R2 CCD camera (Hamamatsu Photonics). For screening, images were acquired with a 20 × objective every 15 min for 24–48 h in the differential interference contrast (DIC), m-cherry and GFP channels. For assessment of apoptosis, the cells were monitored every 15 min for 24 h. Individual cells were manually analysed using the CellCognition browser.

CAL51 cells = assay: Clonogenic (colony-forming) assay; format: cell-based, human; conditions: 0.1 nM BI2536 alone, 12 h exposure, 9 days growth
Protocol: Finally, a clonogenic assay was used to further evaluate the synergy effects between the L1 and Plk1 inhibitors to inhibit colony formation of breast cancer CAL51 cells after a 12 h drug exposure. The percentages of colony formation of cells treated with 0.1 nM BI2536 alone and 0.5 µM L1 alone were 89% and 67%, respectively, while cells treated with both 0.1 nM BI2536 and 0.5 µM L1 together were 2% (figure 10) indicating strong synergetic effects in colony formation.
Figure 10. Quantification of the colony formation experiments (n = 3) after a 12 h exposure. CAL51 cells were treated with vehicle control, 0.1 nM BI2536, 0.5 µM L1 or 0.1 nM BI2536 and 0.5 µM L1 for 12 h. Cells were grown for 9 days in fresh media after 12 h exposure. Mean ± s.e.m. (n = 3) is shown.
CAL51 cells were plated at a density of 200 cells per 60 mm tissue culture dish. After 24 h, they were treated with vehicle (DMSO), 0.1 nM BI2538, 0.5 µM L1 or the combination of 0.1 nM BI2538 and 0.5 µM L1, respectively, for 12 h. After an exposure, the cells were washed with warm sterile PBS, and incubated for additional 9 days in fresh media. After the incubation, cells were fixed and stained with a 20% MeOH: 0.01% crystal violet solution for 30 min. Colonies were counted using a stereomicroscope in three independent experiments.

[3] = read-out: IC50 of tubulin polymerization

T1 sequence (P02554 whole entry): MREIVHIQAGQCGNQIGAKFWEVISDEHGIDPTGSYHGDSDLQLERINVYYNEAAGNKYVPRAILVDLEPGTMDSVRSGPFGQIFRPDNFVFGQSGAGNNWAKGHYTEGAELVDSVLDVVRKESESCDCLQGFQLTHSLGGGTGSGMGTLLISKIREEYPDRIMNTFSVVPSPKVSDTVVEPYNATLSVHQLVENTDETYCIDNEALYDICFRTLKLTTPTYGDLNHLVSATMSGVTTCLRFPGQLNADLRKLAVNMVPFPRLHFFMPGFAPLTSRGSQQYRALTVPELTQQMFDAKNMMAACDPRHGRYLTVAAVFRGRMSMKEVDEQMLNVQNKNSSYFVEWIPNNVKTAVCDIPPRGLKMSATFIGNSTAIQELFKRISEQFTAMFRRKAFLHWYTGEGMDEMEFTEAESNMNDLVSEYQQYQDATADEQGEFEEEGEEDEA
T1 sequence (P02550 whole entry): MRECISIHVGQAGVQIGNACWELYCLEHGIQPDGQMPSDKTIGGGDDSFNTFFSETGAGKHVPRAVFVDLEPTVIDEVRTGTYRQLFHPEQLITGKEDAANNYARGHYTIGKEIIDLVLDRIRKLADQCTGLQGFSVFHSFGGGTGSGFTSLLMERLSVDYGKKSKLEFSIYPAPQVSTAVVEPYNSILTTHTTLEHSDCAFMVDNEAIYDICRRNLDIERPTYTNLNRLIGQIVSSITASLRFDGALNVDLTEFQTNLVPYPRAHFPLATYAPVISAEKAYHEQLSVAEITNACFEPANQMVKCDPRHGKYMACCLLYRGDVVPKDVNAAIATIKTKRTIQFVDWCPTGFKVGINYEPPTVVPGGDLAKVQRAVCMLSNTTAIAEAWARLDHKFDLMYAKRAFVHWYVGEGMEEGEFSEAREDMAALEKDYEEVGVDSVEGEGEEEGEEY

N#CCCS(=O)(=O)c1nnnn1-c1ccccc1 [M2]
IC50 [1, 3]: 220 nM
IC50 [2]: 1400 to 1900 nM

COC(=O)Nc1nc2ccc(C(=O)c3cccs3)cc2[nH]1 [NOC, nocodazole, reference compound]
IC50 ([1]; IC50 of tubulin polymerization): 560 nM
microtubule phenotype with known inhibitors of microtubule polymerization (MDR-sup fission yeast): same phenotype

CC(=O)O[C@H]1C(=O)[C@@]2(C)[C@H]([C@H](OC(=O)c3ccccc3)[C@]3(O)C[C@H](OC(=O)[C@H](O)[C@@H](NC(=O)c4ccccc4)c4ccccc4)C(C)=C1C3(C)C)[C@]1(OC(C)=O)CO[C@@H]1C[C@@H]2O [paclitaxel]
IC50 (WTβIII HeLa cell line): 5.6 nM

O=[N+]([O-])C1=Cc2ccccc2OC1c1ccc2c(c1)OCO2 (centres unmarked) [K1]
cell fate (HeLa cells; 0.5 µM compound): arrested cells initially in mitosis, followed by cell death
cell fate (HeLa cells; 2 µM compound): immediately induced cell death independent of the phase of the cell cycle
phenotype after mitotic arrest (HeLa cells): abnormal multipolar, asymmetric cell divisions, generating 3–4 daughter cells
IC50 [1, 3]: 590 nM

CC[C@@H]1C(=O)N(C)c2cnc(Nc3ccc(C(=O)NC4CCN(C)CC4)cc3OC)nc2N1C1CCCC1 [BI2536, reference compound]
percentage of colony formation (CAL51 cells): 89%

CCCCNC(=O)n1c(NC(=O)OC)nc2ccccc21 [benomyl]
microtubule phenotype with known inhibitors of microtubule polymerization (MDR-sup fission yeast): same phenotype

CC(C)(C)C#C/C=N/n1nnc(-c2ccccc2)n1 [F15]
mitotic duration (prophase to cytokinesis) (HeLa cells; 2 µM compound): 122 ± 42 min
effect on in vitro tubulin polymerization ([1]; 5 µM compound, 60 min): no observable effects on polymerization

COc1ccc(C2Oc3ccc4ccccc4c3C=C2[N+](=O)[O-])cc1OC (centres unmarked) [J1]
cell fate (HeLa cells; 0.5 µM compound): arrested cells initially in mitosis, followed by cell death
cell fate (HeLa cells; 2 µM compound): immediately induced cell death independent of the phase of the cell cycle
phenotype after mitotic arrest (HeLa cells): abnormal multipolar, asymmetric cell divisions, generating 3–4 daughter cells

Nc1nn(S(=O)(=O)c2c(F)c(F)c(F)c(F)c2F)cc1-c1ccc(Cl)cc1 [C16]
mitotic duration (prophase to cytokinesis) (HeLa cells; 2 µM compound): 720 ± 53 min
